Here are results for 51 compounds from patent US6653306B1, “Epoxy-steroidal aldosterone antagonist and angiotensin II antagonist combination therapy” (G.D. Searle & Co., priority 1995, dated 2003).

The assay concerns the target angiotensin II AT1 receptor. Put plainly: Assay A: Angiotensin II binding activity (125I-AII displacement, rat uterine membrane preparation). The protocol: Assay A: Antiotensin II Binding Activity
Compounds of the invention were tested for ability to bind to the smooth muscle angiotensin II receptor using a rat uterine membrane preparation. […] Rat uterine membranes were prepared from fresh tissue. All procedures were carried out at 4° C. Uteri were stripped of fat and homogenized in phosphate-buffered saline at pH 7.4 containing 5 mM EDTA. The homogenate was centrifuged at 1500×g for 20 min., and the supernatant was recentrifuged at 100,000×g for 60 min. The pellet was resuspended in buffer consisting of 2 mM EDTA and 50 mM Tris-HCl (pH 7.5) to a final protein concentration of 4 mg/ml. […] The reaction was initiated by the addition of membrane protein and the mixture was incubated at 25° C. for 60 min. The incubation was terminated with ice-cold 50 mM Tris-HCl (pH 7.5) and the mixture was filtered to separate membrane-bound labelled peptide from the free ligand. The incubation tube and filter were washed with ice-cold buffer. Filters were assayed for radioactivity in a Micromedic gamma counter.
Nonspecific binding was defined as binding in the presence of 10 μM of unlabelled AII. Specific binding was calculated as total binding minus nonspecific binding. […] Binding data were analyzed by a nonlinear least-squares curve fitting program.
As usually defined, the IC50 is the concentration that gives 50% inhibition. In turn, `CCCCc1nc(C23CC4CC(CC(C4)C2)C3)n(Cc2ccc(-c3ccccc3-c3nnn[nH]3)cc2)n1` [Compound 55] gave a half-inhibitory concentration (IC50) of 80 nM.
For the compound `CCCCn1nc(C(C)(OC)OC)nc1Cc1ccc(-c2ccccc2-c2nnn[nH]2)nc1` [Compound 182], the IC50 is 59 nM.
`CCCCc1nc(-c2ccccc2)nn1Cc1ccc(-c2ccccc2-c2nnn[nH]2)nc1` [Compound 259] displayed an IC50 of 54 nM.
In turn, `CCCCc1nc(-c2ccccc2C(C)C)n(Cc2ccc(-c3ccccc3-c3nnn[nH]3)nc2)n1` [Compound 264] showed an IC50 of 11 nM.
Then `CCCCc1nc(CC(CC)CC)nn1Cc1ccc(-c2ccccc2-c2nnn[nH]2)nc1` [Compound 251], with 25 nM.
`CCCCc1nc(CN)nn1Cc1ccc(-c2ccccc2-c2nnn[nH]2)cc1` [Compound 27] gave a concentration for half-maximal inhibition (IC50) of 180 nM.
Next, `CCCCc1nn(/C(Cc2ccccc2)=C(/OCc2ccccc2)c2ccccc2)c(=O)n1Cc1ccc(-c2ccccc2-c2nn[nH]n2)cc1` [Compound 93]: 480 nM; `CCCCCc1nc(Cc2ccc(-c3ccccc3-c3nnn[nH]3)nc2)n(CCCC)n1` [Compound 156]: 78 nM; `CCn1nc(C(C)(F)F)nc1Cc1ccc(-c2ccccc2-c2nnn[nH]2)nc1` [Compound 164]: 1700 nM.
Next, `CCCCc1cn(CCCC)c(=O)n1Cc1ccc(-c2ncccc2-c2nnn[nH]2)cc1` [Compound 224]: 91 nM; `CCCCc1nc(-c2ccccc2C(C)C)nn1Cc1ccc(-c2ccccc2-c2nnn[nH]2)nc1` [Compound 263]: 57 nM; `CCCCc1nn(C(Cc2ccccc2)C(=O)c2ccccc2)c(=O)n1Cc1ccc(-c2ccccc2-c2nn[nH]n2)cc1` (stereo not drawn) [Compound 94]: 5800 nM.
On to `CCCCc1nc(CNC(=O)OC(C)(C)C)n(Cc2ccc(-c3ccccc3-c3nnn[nH]3)cc2)n1` [Compound 34], for which the IC50 was 640 nM.
Next, `CCCCc1nc(CCc2ccccc2)n(Cc2ccc(-c3ccccc3-c3nnn[nH]3)nc2)n1` [Compound 254]: 72 nM.
Then `CCCCc1cn(CCCC)c(=O)n1Cc1ccc(-c2cnccc2-c2nnn[nH]2)cc1` [Compound 225], with 160 nM; and `CCCCc1nc(Cc2ccccc2)nn1Cc1ccc(-c2ccccc2-c2nnn[nH]2)cc1` [Compound 44], with 16 nM.
`CCCCc1nn(CCCCC(=O)OC)c(=O)n1Cc1ccc(-c2ccccc2-c2nn[nH]n2)cc1` [Compound 100]: the IC50 stood at 4.4 nM.
Then `CCCCc1nc(CCCNC(=O)OC(C)(C)C)nn1Cc1ccc(-c2ccccc2-c2nnn[nH]2)cc1` [Compound 68], with 8.6 nM; and `CCCCc1cn(-c2c(C)cccc2C)c(=O)n1Cc1ccc(-c2ccccc2-c2nnn[nH]2)nc1` [Compound 222], with 5 nM.
`CCCCn1cc(C2CCCC2)n(Cc2ccc(-c3ccccc3-c3nnn[nH]3)nc2)c1=O` [Compound 192] displayed a 50% inhibitory concentration (IC50) of 140 nM.
Compound `CCCCc1nc(CCC2CCCCC2)nn1Cc1ccc(-c2ccccc2-c2nnn[nH]2)cc1` [Compound 43] gave an IC50 of 19 nM.
For the compound `CCCCc1cn(C2CCCCC2(C)C)c(=O)n1Cc1ccc(-c2ccccc2-c2nnn[nH]2)nc1` (stereo not drawn) [Compound 237], the half-inhibitory concentration (IC50) was found to be 3.6 nM.
Then `CCCCc1nc(-c2c(F)cccc2F)nn1Cc1ccc(-c2ccccc2-c2nnn[nH]2)nc1` [Compound 269], with 9.7 nM; and `CCCCc1nc(C(F)F)n(Cc2ccc(-c3ccccc3-c3nnn[nH]3)cc2)n1` [Compound 48], with 680 nM; and `CCCCc1nc(-c2ccccc2)n(Cc2ccc(-c3ccccc3-c3nnn[nH]3)nc2)n1` [Compound 260], with 220 nM.
As for `CCCCn1cc(CCC(C)C)n(Cc2ccc(-c3ccccc3-c3nnn[nH]3)nc2)c1=O` [Compound 189], the IC50 was determined as 29 nM.
In the case of `CCCCc1nc(CC(OCC)OCC)nn1Cc1ccc(-c2ccccc2-c2nnn[nH]2)cc1` [Compound 38], the IC50 was 10 nM.
For `CCCCc1cn(CCCC)c(=O)n1Cc1ccc(-c2ccncc2-c2nnn[nH]2)cc1` [Compound 226], the IC50 was 93 nM.
`CCCCc1nc(CF)nn1Cc1ccc(-c2ccccc2-c2nnn[nH]2)cc1` [Compound 59]: the IC50 worked out at 120 nM.
Take `CCCCCCCCc1nc(CCCC)n(Cc2ccc(-c3ccccc3-c3nnn[nH]3)cc2)n1` [Compound 29]: the IC50 is 160 nM.
Then `CCCCCCCCc1nc(CCCC)nn1Cc1ccc(-c2ccccc2-c2nnn[nH]2)cc1` [Compound 28], with 570 nM; and `CCCCc1cn(CC)c(=O)n1Cc1ccc(-c2ccccc2-c2nnn[nH]2)nc1` [Compound 195], with 34 nM; and `CCCCc1cn(-c2c(C)cc(C(C)(C)C)cc2C)c(=O)n1Cc1ccc(-c2ccccc2-c2nnn[nH]2)nc1` [Compound 233], with 84 nM.
Compound `CCCCc1cn(-c2c(C(C)C)cccc2C(C)C)c(=O)n1Cc1ccc(-c2ccccc2-c2nnn[nH]2)nc1` [Compound 235] had an IC50 of 34 nM.
Compound `CCCCc1nc(C(OC)OC)n(Cc2ccc(-c3ccccc3-c3nnn[nH]3)cc2)n1` [Compound 23] showed an IC50 of 430 nM.
In turn, `CCCCc1nc(CC(CC)CC)n(Cc2ccc(-c3ccccc3-c3nnn[nH]3)nc2)n1` [Compound 252] returned an IC50 of 13 nM.
For the compound `CCCn1cc(CC(C)C)n(Cc2ccc(-c3ccccc3-c3nnn[nH]3)nc2)c1=O` [Compound 187], the concentration for half-maximal inhibition (IC50) came to 770 nM.
Then `CCCCn1nc(CCc2ccccc2)nc1Cc1ccc(-c2ccccc2-c2nnn[nH]2)cc1` [Compound 131], with 9.5 nM; and `CCCCc1nc(C)n(Cc2ccc(-c3ccccc3-c3nnn[nH]3)cc2)n1` [Compound 33], with 630 nM; and `CCCCc1nc(CC)nn1Cc1ccc(-c2ccccc2C(=O)O)cc1` [Compound 75], with 570 nM.
Next, `CCCCc1nc(CC23CC4CC(CC(C4)C2)C3)n(Cc2ccc(-c3ccccc3-c3nnn[nH]3)cc2)n1` [Compound 61]: 110 nM.
In turn, `CCCCc1nc(C(=O)CCC)nn1Cc1ccc(-c2ccccc2-c2nnn[nH]2)cc1` [Compound 31] returned an IC50 of 14 nM.
Compound `CCCCc1cn(C23CC4CC(CC(C4)C2)C3)c(=O)n1Cc1ccc(-c2ccccc2-c2nnn[nH]2)nc1` [Compound 214] came in with a half-maximal inhibitory concentration (IC50) of 65 nM.
Then `CCCCc1nc(-c2ccccc2C)nn1Cc1ccc(-c2ccccc2-c2nnn[nH]2)nc1` [Compound 261], with 18 nM.
In turn, `CCCCn1nc(C(OCCC)OCCC)nc1Cc1ccc(-c2ccccc2-c2nnn[nH]2)nc1` [Compound 177] had an IC50 of 26 nM.
In turn, `CCCCc1nc(CCCC)n(Cc2ccc(-c3ccncc3-c3nnn[nH]3)cc2)n1` [Compound 243] came in with a 50% inhibitory concentration (IC50) of 250 nM.
Then `CCCCc1nc(-c2ccccc2OC)n(Cc2ccc(-c3ccccc3-c3nnn[nH]3)nc2)n1` [Compound 266], with 290 nM; and `CCCCc1nc(C2CCCCC2)nn1Cc1ccc(-c2ccccc2-c2nnn[nH]2)cc1` [Compound 66], with 12 nM.
In turn, `CCCCc1cn(CCCC)c(=O)n1Cc1ccc(-c2cccnc2-c2nnn[nH]2)cc1` [Compound 227] came in with an IC50 of 89 nM.
Next, `CCCCc1nc(-c2ccccc2OC)nn1Cc1ccc(-c2ccccc2-c2nnn[nH]2)nc1` [Compound 265]: 110 nM; `CCCCc1cn(CC(C)C)c(=O)n1Cc1ccc(-c2ccccc2-c2nnn[nH]2)nc1` [Compound 197]: 14 nM.
